In patent US10285984B2, “Methods and compositions for improving gut microbiota population” (SHANGHAI JIAO TONG UNIVERSITY, priority 2012, dated 2019):

Experiments:
Type in all cases: in vivo, Wistar rats
[1] = test system: gut short-chain fatty acid; assay: Short-chain fatty acid level in rat feces by gas chromatography; details: oral 100 mg/kg body weight, FIG. 3
Excerpt: These examples use Wistar rats (8 weeks old, male) as testing subjects and berberine as a representative compound. 40 Wistar rats were acclimatized for two weeks and were subsequently randomly divided into four groups: normal diet group (NCD), normal diet plus berberine treatment (NCD+BBR), high fat diet (HFD), and high fat diet plus berberine treatment (HFD+BBR). Each group continued for another 18 weeks. During these 18 weeks, the NCD+BBR group received intragastric administration of berberine at stated levels. Feces samples from each animal were collected at various time points. 454 pyrosequencing was performed to analyze gut microbiota structure. Gas chromatography was used to assay the short-chain fatty acid level of the feces. In addition, weight, food intake, insulin sensitivity, systemic inflammation levels were monitored and measured during the 18-week period. The levels of short-chain fatty acid (including acetic acid, propionic acid, butyric acid, valeric acid, isobutyric acid, isovaleric acid, etc.) in rat feces were assayed by gas chromatography. […] Therefore, berberine is capable of increasing gut short-chain fatty acid level in rats fed normal diet or high fat diet.

gut microbiota = assay: Gut microbiota structure in rat feces by 454 pyrosequencing and multivariate statistics (PCoA, MANOVA, RDA, Shannon-Wiener index)
Excerpt: (§1) These examples use Wistar rats (8 weeks old, male) as testing subjects and berberine as a representative compound. 40 Wistar rats were acclimatized for two weeks and were subsequently randomly divided into four groups: normal diet group (NCD), normal diet plus berberine treatment (NCD+BBR), high fat diet (HFD), and high fat diet plus berberine treatment (HFD+BBR). Each group continued for another 18 weeks. During these 18 weeks, the NCD+BBR group received intragastric administration of berberine at stated levels. Feces samples from each animal were collected at various time points. 454 pyrosequencing was performed to analyze gut microbiota structure. Gas chromatography was used to assay the short-chain fatty acid level of the feces. In addition, weight, food intake, insulin sensitivity, systemic inflammation levels were monitored and measured during the 18-week period.
The gut microbiota populations in rats from all four experimental groups were analyzed by 454 pyrosequencing and multivariate statistical analyses. […] Diet also exerted statistically significant influence on gut microbiota population.
268 berberine-related OTU were identified by redundancy analysis (RDA) and the detailed results are shown in FIG. 2, TABLE 1, and TABLE 2. 93 OTU (SEQ_ID_NO 1-93) (TABLE 1) are enriched by berberine, while 175 OTU (SEQ_ID_NO 94-268) (TABLE 2) were suppressed or eliminated.
The taxonomy of these 268 OTU was analyzed using RDP classifier with representative sequence of the OTU. […] Among them, Blautia, Allobaculum, Prevotella, Bacteroides, and Butyricimonas are relatively abundant and are capable of producing short-chain fatty acid.

[2] = Obesity phenotype of rats fed normal or high fat diet: body weight, adiposity index, food intake, liver and pancreas
Excerpt: as §1, with “period. The body weight of all four groups of rats were monitored during the duration of the experiments and analyzed. […] At the end of experiment, animals were euthanized. Fasting body weight, epididymal fat weight, and perirenal fat weight were measured.” for “period.”

[3] = Systemic inflammation level in rats: serum LBP, MCP-1, leptin, adiponectin
Excerpt: as §1
In order to evaluate the systemic inflammation levels of all four experimental groups of rats, the serum levels of lipopolysaccharide (LPS)-binding protein (LBP), monocyte chemoattractant protein-1 (MCP-1), leptin, and adiponectin were measured, and results are shown in FIG. 6.
MCP-1 is a pro-inflammatory cytokine that functions in chemotaxis and activation of monocytes/macrophages. Occurrence and development of many inflammation-related diseases are closely related to MCP-1, including atherosclerosis, obesity, type 2 diabetes, arthritis, sepsis, and chronic bacterial infection.
Leptin is a hormone secreted by adipose tissue, and broadly participates in lipid, glucose, and energy metabolism.
The adiponectin levels in all four groups were analyzed. […] Therefore, berberine improves gut microbiota population, reduces LPB, MCP-1, and lpetin level, and increases adiponectin secretion. TABLE 1 16S rRNA gene V3 region sequence of those bacteria enriched by berberine.

[4] = Insulin sensitivity in rats: FBG, FINS, HOMA-IR, oral glucose tolerance test, intraperitoneal insulin tolerance test
Excerpt: as §1, with “period. The fasting blood glucose (FBG) and fasting insulin in serum (FINS) were measured for all four experimental groups of rats. […] In order to further examine insulin sensitivity, oral glucose tolerance test and intraperitoneal injection of insulin tolerance test were conducted, and the results are shown in FIG. 5D, and 5E, respectively.” for “period.”

COc1ccc2cc3[n+](cc2c1OC)CCc1cc2c(cc1-3)OCO2 [berberine]
effect on levels of acetic acid and propionic acid in feces [1]: especially pronounced
level of gut short-chain fatty acid in feces ([1]; rats fed normal diet or high fat diet): may increase the level of gut short-chain fatty acid
number of berberine-related OTU identified (RDA) (gut microbiota; FIG. 2): 268 OTU
share of overall changes in the gut microbiota population accounted for (PCoA, unweighted Unifrac distance) (gut microbiota; NCD and HFD rats, FIG. 1A): 12.6%
diversity of gut microbiota population (Shannon-Wiener index) (gut microbiota; P<0.05, FIG. 1C): reduces diversity of gut microbiota population at a statistically significant level
number of OTU enriched (RDA) (gut microbiota; SEQ_ID_NO 1-93, TABLE 1): 93 OTU
number of OTU suppressed or eliminated (RDA) (gut microbiota; SEQ_ID_NO 94-268, TABLE 2): 175 OTU
effect on gut microbiota structure (PCoA) (gut microbiota; normal diet group and high fat diet group): altered gut microbiota structure in both the normal diet group and high fat diet group at a statistically significant level
body weight of HFD+BBR group versus normal diet group ([2]; 100 mg/kg, entire experiment, P>0.05): no statistically significant difference
effect on liver and pancreas / side effect of long term use ([2]; 18 weeks): no obvious side effect
adiposity index ([epididymal fat weight+perirenal fat]/fasting weight×100) ([2]; 18 weeks, HFD, FIG. 4B): significantly reduces adiposity index
body weight of rats fed a normal diet ([2]; NCD+BBR, FIG. 4): influences, to a certain degree
body weight growth ([2]; intragastric 100 mg/kg, 18 weeks, especially rats fed high fat diet, FIG. 4A): effectively limits rat body weight growth
food intake (calorie intake) ([2]; oral 100 mg/kg body weight, especially rats fed a high fat diet, FIG. 4C): significant inhibitory effect on rat food intake
serum lipopolysaccharide (LPS)-binding protein (LBP) ([3]; 100 mg/kg, HFD, P<0.05, FIG. 6A): significantly abrogated the increase of serum LBP
serum MCP-1 level ([3]; HFD rats, FIG. 6B): significantly reduced
serum MCP-1 level versus NCD group ([3]; HFD+BBR versus NCD): even lower than that of NCD group
serum leptin level ([3]; especially rats fed a HFD, P<0.05, FIG. 6C): significantly reduced the serum leptin level
adiponectin level normalized against body fat weight ([3]; rats fed a HFD, P<0.01, FIG. 6D): significantly increased adiponectin level
oral glucose tolerance test ([4]; 100 mg/kg body weight, 18 weeks HFD, FIG. 5D): significantly prevented the loss of glucose tolerance
intraperitoneal injection of insulin tolerance test ([4]; 100 mg/kg body weight, 18 weeks HFD, FIG. 5E): significantly prevented the loss of glucose tolerance and insulin tolerance
fasting insulin in serum (FINS) ([4]; 100 mg/kg body weight, HFD+BBR, FIG. 5B): significantly reduced
HOMA insulin resistance index ([4]; 100 mg/kg body weight, HFD, P<0.05, FIG. 5C): prevented the formation of insulin resistance
fasting blood glucose (FBG) reduction ([4]; HFD rats, P<0.05, FIG. 5A): significant
fasting blood glucose (FBG) ([4]; NCD and HFD rats, FIG. 5A): effectively reduced FBG
